Test [1] concerns Plasmodium berghei (Pb-Luc) exoerythrocytic-stage parasites. The conditions noted are these: for IC50: read-out: PbLuc_IC50; for normalised signal at concentration 10 (first series): concentration 10, first series of dose columns; for normalised signal at concentration 10 (second series): concentration 10, second series of dose columns.
The next test relates to HepG2-A16-CD81EGFP cells. The conditions noted are these: for IC50: read-out: Tox_IC50, HepG2 cytotoxicity.
Setting [2] is: 2nd round, maximal inhibition in dose series.
Where [3] appears, read: sheet "2nd round", Broad compounds, dose response top concentration 10.
Setting [4] is: first series of columns, fraction of control.
[5] abbreviates: second series of columns (replicate), fraction of control.
Where [6] appears, read: sheet 2nd round, maximal inhibition in dose response.

Structures are written as SMILES. Where two headings read alike, the source gives them in different places.

With `C[C@H]1CN([C@@H](C)CO)C(=O)c2cccc(NC(=O)c3ccc(-c4nccs4)cc3)c2O[C@@H]1CN(C)C(=O)Nc1ccc(C(F)(F)F)cc1` [BRD-K03390828-001-01-5], in test [1] (setting [2]), the “PbLuc_max_inhibition (%)” value is on record as 34%. The “normalized signal at 0.000508053 (first series)” value in test [1] (concentration 0.000508053, first replicate series, fraction of control) came to 0.9377. In test [1] (concentration 0.000508053, second replicate series, fraction of control), the “normalized signal at 0.000508053 (second series)” value came to 0.6684. Moreover, the “normalized signal at 0.00152416 (first series)” value in test [1] (concentration 0.00152416, first replicate series, fraction of control) is reported as 0.8855. Also, the “normalized signal at 0.00152416 (second series)” value in test [1] (concentration 0.00152416, second replicate series, fraction of control) stood at 0.8915. The “normalized signal at 0.00457247 (first series)” value in test [1] (concentration 0.00457247, first replicate series, fraction of control) is listed as 0.8808. In test [1] (concentration 0.00457247, second replicate series, fraction of control), the “normalized signal at 0.00457247 (second series)” value is listed as 0.7577. Moreover, the “normalized signal at 0.0137174 (first series)” value in test [1] (concentration 0.0137174, first replicate series, fraction of control) was 0.9989. Further, in test [1] (concentration 0.0137174, second replicate series, fraction of control), the “normalized signal at 0.0137174 (second series)” value is given as 0.749. The “normalized signal at 0.0411523 (first series)” value in test [1] (concentration 0.0411523, first replicate series, fraction of control) amounted to 0.8536. Further, the “normalized signal at 0.0411523 (second series)” value in test [1] (concentration 0.0411523, second replicate series, fraction of control) came out at 0.9352. In addition, in test [1] (concentration 0.123457, first replicate series, fraction of control), the “normalized signal at 0.123457 (first series)” value amounted to 0.9414. For the same compound, the “normalized signal at 0.123457 (second series)” value in test [1] (concentration 0.123457, second replicate series, fraction of control) was determined as 0.925. In test [1] (concentration 0.37037, first replicate series, fraction of control), the “normalized signal at 0.37037 (first series)” value was 0.9548. In addition, the “normalized signal at 0.37037 (second series)” value in test [1] (concentration 0.37037, second replicate series, fraction of control) stood at 0.6557. The “normalized signal at 1.11111 (first series)” value in test [1] (concentration 1.11111, first replicate series, fraction of control) is on record as 1.032. Further, the “normalized signal at 1.11111 (second series)” value in test [1] (concentration 1.11111, second replicate series, fraction of control) amounted to 0.7805. The “normalized signal at 3.33333 (first series)” value in test [1] (concentration 3.33333, first replicate series, fraction of control) is 1.162. For the same compound, in test [1] (concentration 3.33333, second replicate series, fraction of control), the “normalized signal at 3.33333 (second series)” value is 0.8715. The “normalized signal at 10 (first series)” value in test [1] (concentration 10, first replicate series, fraction of control) is on record as 0.7935. Moreover, the “normalized signal at 10 (second series)” value in test [1] (concentration 10, second replicate series, fraction of control) is on record as 0.8747. In addition, the IC50 in test [1] (2nd round, Broad DOS compounds, unit not printed (dose series head 10 to 0.000508053)) is > 10 µM; in the test with HepG2-A16-CD81EGFP cells (2nd round, unit inferred), > 10 µM. Also, the “Tox_max_inhibition (%)” value in the test on HepG2-A16-CD81EGFP cells (setting [2]) is 6.57%.
Take `COc1ccc(CNC(=O)C[C@H]2CC[C@@H](NC(=O)CN(C)C)[C@H](CO)O2)cc1` [BRD-K05060234-001-01-0]: in test [1], the “normalised signal at concentration 0.000508053 (first series)” value is 0.9876, the “normalised signal at concentration 0.000508053 (second series)” value was 0.95, the “normalised signal at concentration 0.00152416 (first series)” value amounted to 0.9394 and the “normalised signal at concentration 0.00152416 (second series)” value was determined as 1.006. In addition, in test [1], the “normalised signal at concentration 0.00457247 (first series)” value is 1.108, the “normalised signal at concentration 0.00457247 (second series)” value was 1.09, the “normalised signal at concentration 0.0137174 (first series)” value turned out to be 1.028 and the “normalised signal at concentration 0.0137174 (second series)” value was 1.083. In test [1], the “normalised signal at concentration 0.0411523 (first series)” value is 1.04, the “normalised signal at concentration 0.0411523 (second series)” value was 1.112, the “normalised signal at concentration 0.123457 (first series)” value is given as 1.099 and the “normalised signal at concentration 0.123457 (second series)” value turned out to be 1.024. For the same compound, in test [1], the “normalised signal at concentration 0.37037 (first series)” value is 1.009, the “normalised signal at concentration 0.37037 (second series)” value is listed as 0.9385, the “normalised signal at concentration 1.11111 (first series)” value was determined as 1.251 and the “normalised signal at concentration 1.11111 (second series)” value was found to be 1.0925. In addition, in test [1], the “normalised signal at concentration 3.33333 (first series)” value is 1.234, the “normalised signal at concentration 3.33333 (second series)” value is 0.8448, the “normalised signal at concentration 10 (first series)” value amounted to 0.9455 and the “normalised signal at concentration 10 (second series)” value came out at 0.8679. Moreover, the IC50 in test [1] (setting [3]) is > 10 µM. Besides, the “PbLuc_max_inhibition (%)” value in test [1] (sheet "2nd round") was found to be 16%. In addition, in the test on HepG2-A16-CD81EGFP cells (sheet "2nd round"), the IC50 was > 10 µM and the “Tox_max_inhibition (%)” value amounted to 11%.
Regarding `C[C@@H]1CN([C@@H](C)CO)C(=O)c2ccccc2-c2ccccc2CO[C@@H]1CN(C)S(=O)(=O)Cc1ccccc1` [BRD-K06421369-001-01-0], in test [1] (setting [4]), the “normalized signal at concentration 0.000508053” value is 1.055, the “normalized signal at concentration 0.00152416” value is given as 1.041, the “normalized signal at concentration 0.00457247” value turned out to be 0.8367 and the “normalized signal at concentration 0.0137174” value is on record as 0.8756. In test [1] (setting [4]), the “normalized signal at concentration 0.0411523” value turned out to be 0.8835, the “normalized signal at concentration 0.123457” value turned out to be 1.014, the “normalized signal at concentration 0.37037” value is listed as 0.8794 and the “normalized signal at concentration 1.11111” value amounted to 0.8244. Moreover, in test [1] (setting [4]), the “normalized signal at concentration 3.33333” value is recorded as 1.118 and the “normalized signal at concentration 10” value is given as 0.9941. For the same compound, the IC50 in test [1] (sheet 2nd round, Pb-Luc exoerythrocytic stage, 10-point dose response, top concentration 10) was > 10 µM. In addition, in test [1] (setting [5]), the “normalized signal at concentration 0.000508053” value amounted to 0.9052, the “normalized signal at concentration 0.00152416” value is 1.004, the “normalized signal at concentration 0.00457247” value was 1.069 and the “normalized signal at concentration 0.0137174” value amounted to 0.9457. In test [1] (setting [5]), the “normalized signal at concentration 0.0411523” value worked out at 0.8932, the “normalized signal at concentration 0.123457” value was 1.033, the “normalized signal at concentration 0.37037” value is on record as 1.094 and the “normalized signal at concentration 1.11111” value was 1.104. Further, in test [1] (setting [5]), the “normalized signal at concentration 3.33333” value amounted to 1.032 and the “normalized signal at concentration 10” value was 0.8304. In addition, the “PbLuc_max_inhibition (%)” value in test [1] (setting [6]) is given as 18%. For the same compound, the IC50 in the test with HepG2-A16-CD81EGFP cells (sheet 2nd round) is > 10 µM. Also, in the test with HepG2-A16-CD81EGFP cells (setting [6]), the “Tox_max_inhibition (%)” value was determined as 8.54%.
Turning to `O=C(C1CCOCC1)N1C[C@@H]2[C@H](c3ccccc31)[C@H](CO)N2C(=O)Cc1ccccn1` [BRD-K09790760-001-01-0], in test [1], the “normalised signal at concentration 0.000508053 (first series)” value was 0.7162, the “normalised signal at concentration 0.000508053 (second series)” value is 0.9348, the “normalised signal at concentration 0.00152416 (first series)” value came to 0.8009 and the “normalised signal at concentration 0.00152416 (second series)” value is 0.7622. Further, in test [1], the “normalised signal at concentration 0.00457247 (first series)” value turned out to be 0.9824, the “normalised signal at concentration 0.00457247 (second series)” value stood at 0.8311, the “normalised signal at concentration 0.0137174 (first series)” value is 0.8823 and the “normalised signal at concentration 0.0137174 (second series)” value amounted to 0.8539. Further, in test [1], the “normalised signal at concentration 0.0411523 (first series)” value is recorded as 1.052, the “normalised signal at concentration 0.0411523 (second series)” value is reported as 0.8968, the “normalised signal at concentration 0.123457 (first series)” value is recorded as 0.7822 and the “normalised signal at concentration 0.123457 (second series)” value is listed as 0.8152. Moreover, in test [1], the “normalised signal at concentration 0.37037 (first series)” value is 0.9579, the “normalised signal at concentration 0.37037 (second series)” value was 1.035, the “normalised signal at concentration 1.11111 (first series)” value worked out at 0.8507 and the “normalised signal at concentration 1.11111 (second series)” value was found to be 0.8044. Moreover, in test [1], the “normalised signal at concentration 3.33333 (first series)” value amounted to 0.9897, the “normalised signal at concentration 3.33333 (second series)” value stood at 1.088, the “normalised signal at concentration 10 (first series)” value turned out to be 0.9272 and the “normalised signal at concentration 10 (second series)” value came out at 0.9177. Moreover, in test [1] (setting [3]), the IC50 was > 10 µM. Besides, in test [1] (sheet "2nd round"), the “PbLuc_max_inhibition (%)” value was determined as 28%. In the test on HepG2-A16-CD81EGFP cells (sheet "2nd round"), the IC50 is > 10 µM and the “Tox_max_inhibition (%)” value was 5%.
